“Also recorded” adds a separate entry of the source.
Legend:
bovine hemoglobin = bovine hemoglobin (Bos taurus, UniProt P01966+P02070); assay: Oxygen equilibrium of isolated bovine Hb solutions (p50); format: biochemical; details: for p50 shift at increasing chloride concentration / Hb bovine(p50): bovine Hb solution; for p50 shift at increasing chloride concentration: 0.5 mM, chloride 0-400 mM; for Hb bovine(p50): effector 0.5 mM, pH 7.2, 100 mM NaCl, 25 °C
Description: (§1) L3,5 and L3,4,5 were provided by Dr. Lalezari (Montefiore Hospital, New York); RSR-4 [2-[4-[[(3,5-dichloroanilino)carbonyl]methyl]phenoxy]-2-methylpropionic acid]and RSR13 [2-4-[[(3,5- dimethylanilino)carbonyl]methyl]phenoxy]-2-methylpropionic acid] have been synthesized following the procedure described in Randad et al. (J. Med. Chem. 34,752 (1991)). Human serum albumin (HSA), bovine serum albumin (BSA) and 4,4'diisothiocyanatostilbene-2,2'-disulfonate (DIDS) were purchased from Sigma (St. Louis, Mo.). Due to their low solubility in aqueous buffer, 10 mM stock solutions of the compounds were prepared in a slight exccess of sodium bicarbonate and back-titrated to pH 7.4. For example, RSR-4 or RSR-13 was dissolved at 60° C. in a 140 mM NaCl and 50 mM bis-Tris buffer at room temperature upon progressive addition of NaHCO3 to obtain 10 mM stock solutions. The pH was carefully adjusted to 7.4 after complete solubilization and before use of the solutions. Fresh solutions were prepared each week. Stock solutions of DIDS (1 mM) were prepared, in the dark, on the day of the experiments in a pH 7.4 buffer. Human serum albumin (defatted HSA) and bovine serum albumin (BSA) were prepared freshly as 1 mM stock solutions, pH 7.4. Equilibrium Measurements. The allosteric modulation of the effectors on freshly prepared solutions of hemoglobin or red cell suspensions was measured by the change in p50, the partial pressure of oxygen for half-saturation. Oxygen equilibrium curves (OEC) were carried out with the Hemox analyzer (TCS, Southampton, Pa.) under the following conditions: pH 7.4, 140 mM NaCl and 50 mM bis-Tris buffer at 37° C. In all experiments, the concentration of hemoglobin in the red cell suspensions was 20-25 μM hemoglobin tetramer (Hb4) as measured by Drabkin's method (cyanomethemoglobin) at the end of each recording. The final concentration of the allosteric effector in the cuvette was 0.5 mM, resulting in an effector/Hb4 ratio of 20 in the absence of albumin. OEC were also made in the same buffer containing 12.5, 25, 50, and 100 μM HSA (for human red cell suspensions) or BSA (for bovine cell suspensions). The serum albumin experiments were carried out with traces of an antifoaming agent. This agent has no deleterious effect on the red cell suspensions. The molar ratio of albumin to tetrameric hemoglobin was varied from 0.5 (at 12.5 μM HSA) to 4 (at 100 μM HSA); in whole blood this ratio is approximately 0.3 (0.7 mM albumin plus plasma proteins/2.25 mM Hb4). Therefore, the concentration of albumin used in the present studies was always larger relative to tetrameric hemoglobin than that found in whole blood.
Bovine Red Cell Studies. Table 2 presents data for oxygen binding measurements for fresh bovine red blood cells and isolated Hb solutions on addition of the effectors L3,5, RSR-4, and RSR-13. The experimental conditions used were the same as described in conjunction with Table 1 for human red blood cells. The oxygen equilibrium curves for Hb solutions were made at pH 7.2, 100 mM NaCl and 50 mM bis-Tris buffer at 25° C. Catalase (20 μg/mL) and 50 μM EDTA were added to oppose oxidation of the hemes. The concentration of the effectors was 0.5 mM in all conditions. In Table 2, BSA is bovine serum albumin and P50 (mmHg) is the pO2 for 50% saturation.

deoxyhemoglobin = deoxyhemoglobin (Homo sapiens, UniProt P68871+P69905); assay: X-ray crystallographic studies with deoxyhemoglobin; format: binding
Procedure: X-ray Crystallographic Studies. Hemoglobin for the crystal studies was prepared from human blood, and T-state deoxy crystals were obtained from ammonium sulfate solutions. RSR-4 or RSR-13 (2 effectors/I Hb) was dissolved in a slight excess of sodium bicarbonate to facilitate dissolution and was added to a 6 g % solution of deoxy-Hb in the glove box. A 1 g % Hb RSR-4 or RSR-13 solution was added to each crystallization tube. Crystals grew in approximately 1 week. X-ray data were collected with Friedel pairs using ω scans on a Rigaku AFC5R diffractometer equipped with a rotating anode and a 60-cm long evacuated beam tunnel. The crystals with allosteric effectors were isomorphous with native deoxy-Hb: RSR-4, 63.2, 83.7, and 53.8 Å, 99.4°; RSR-13, 63.2, 83.6, and 53.7 Å, 99.5°. Data collection (RSR-4 to 2.4-Å and RSR-13 to 2.8-Å resolution) was controlled by TEXAN software from Molecular Structure Corp. (The Woodlands, Tex.). There was little radiation damage to crystals, and new crystals were mounted when standard reference reflection intensities fell by 10%. All data were corrected for radiation damage when appropriate. The R-factors for the Friedel pairs and derivatives vs. native were as follows: RSR-4 (2.4 Å), 14.6% and 18.9%, and RSR-13 (2.8 Å), 7.2% and 12.5%, respectively. The difference electron density maps were obtained using the Cambridge computer programs (CCP4). […] The allosteric effector molecules were well resolved and easily fit to the difference density.

[1] = molecular target: hemoglobin in red cell suspensions (Homo sapiens, UniProt P68871+P69905); assay: Allosteric effector activity in the presence of serum albumin in buffered red cell suspensions (FIG. 3); format: cell-based; details: for effector activity in the presence of serum albumin: FIG. 3, effector 0.5 mM (L3,4,5 0.25 mM)
Description: as §1, with “OEC were also made in the same buffer containing 12.5, 25, 50, and 100 μM HSA (for human red cell suspensions) or BSA (for bovine cell suspensions). The serum albumin experiments were carried out with traces of an antifoaming agent. This agent has no deleterious effect on the red cell suspensions. The molar ratio of albumin to tetrameric hemoglobin was varied from 0.5 (at 12.5 μM HSA) to 4 (at 100 μM HSA); in whole blood this ratio is approximately 0.3 (0.7 mM albumin plus plasma proteins/2.25 mM Hb4). Therefore, the concentration of albumin used in the present studies was always larger relative to tetrameric hemoglobin than that found in whole blood.” left out

hemoglobin in rat blood = assay: In vivo effect in conscious rats: oxygen dissociation curve of blood after 2-h infusion; details: for sign of distress: rats, during infusion
Procedure: In Vivo Studies. The in vivo effect of RSR-4 and RSR-13 was assessed in conscious rats that received (through a chronic femoral vein catheter) an initial 85.7±3.7 mg/kg dose of RSR-4 or 84.0±4.0 mg/kg dose of RSR-13, followed by 85.7±3.7mg/(kg h) RSR-4 or 84.0±4.0 mg/(kg h) RSR13, respectively, for 2 h. The oxygen dissociation curve was measured before infusion with a Hemox analyzer and, after the 2-h infusion, was manually measured with a tonometer and visible spectroscopy to avoid a dilution step (used with the Hemox analyzer) that would disrupt the equilibrium between the drug and erythrocytes. Tonometry was performed at a constant/pCO2 of 40 mmHg at 37° C. The pH of the blood was 7.443±0.012 (n=5) for the RSR-13 experiment and 7.412±0.098 (n=7) for the RSR-4 experiment. Control rats received an infusion of buffer solution with NaHCO3. A slight molar excess of NaHCO3 was used to better solubilize RSR-4.

Compound | p50 shift at increasing chloride concentration (bovine hemoglobin) | Hb bovine(p50) (bovine hemoglobin) | second symmetry-related pair of binding sites (deoxyhemoglobin; near Arg 104β) | allosteric effector activity ([1]; 0.5 mM effector, in the presence of 50 μM albumin) | effector activity in the presence of serum albumin [1] | Hill coefficient (hemoglobin in rat blood; rats (n=5), 84 mg/kg then 84 mg/(kg h) for 2 h, initial 2.62±0.10) | p50 (hemoglobin in rat blood; rats (n=5), 84 mg/kg then 84 mg/(kg h) for 2 h, initial 36.0±2.7) | sign of distress (hemoglobin in rat blood) | binding site in deoxyhemoglobin crystal (deoxyhemoglobin) | potency in Hb solution (bovine hemoglobin; Hb solution studies, Table 2) | p50 (hemoglobin in rat blood; rats (n=7), 85.7±3.7 mg/kg iv then 85.7±3.7 mg/(kg h) for 2 h, control value 36.4±1.6) | Hill coefficient (hemoglobin in rat blood; rats (n=7), 85.7±3.7 mg/kg iv then 85.7±3.7 mg/(kg h) for 2 h, initial 2.66±0.13)
CC(C)(Oc1ccc(NC(=O)Nc2cc(Cl)cc(Cl)c2)cc1)C(=O)O [L3,5, reference compound] | identical at all chloride concentrations | 37 mmHg | have a second symmetry-related pair of binding sites near Arg 104β | – | – | – | – | – | – | – | – | –
Cc1cc(C)cc(NC(=O)Cc2ccc(OC(C)(C)C(=O)O)cc2)c1 [RSR-13] | – | – | – | greater than 90% | practically unaffected by serum albumin; also recorded: by far the least affected by serum albumin inhibition | 1.73±0.08 | 61.4±5.8 mmHg | did not show any sign of distress | bind in the central water cavity in a conformation identical to that found for RSR-4 | – | – | –
CC(C)(Oc1ccc(CC(=O)Nc2cc(Cl)cc(Cl)c2)cc1)C(=O)O [RSR-4, 2-[4-[[(3,5-dichloroanilino)carbonyl]methyl]phenoxy]-2-methylpropionic acid] | identical at all chloride concentrations | 59 mmHg | – | – | greater than L3,5 and L3,4,5 at all serum albumin/Hb ratios studied | – | – | did not show any sign of distress | – | significantly larger than that of L3,5 | 60.7±8.1 mmHg | 1.74±0.08
